These results are taken from paper PMC4497792 (RSC advances, 2015).

In series [1] the test system is A549 non-small cell lung carcinoma cells. In words: Intracellular concentration / cell uptake assessment by LC-MS. It is filed as cell-based, human. To be noted: 100 μM, 4 hours, compared to aglycone NHI-2 and to each other.
The subject of the next series is HeLa cells. The following applies: antiproliferative IC50, HeLa and A549 cells.
Series [2] concerns the target human lactate dehydrogenase hLDH5 (LDH-A4) (Homo sapiens, UniProt P00338). In words: Enzyme inhibition assay, NADH-competition kinetics on purified hLDH5.
In the next series the test system is GLUT1. To be noted: cited from earlier work; for Km: read-out: Km for GLUT1.

For `COC(=O)c1cc2c(C(F)(F)F)cc(-c3ccccc3)cc2n1O[C@@H]1O[C@H](CO)[C@H](O)[C@@H](O)[C@H]1O` [Compound 3, Methyl 6-phenyl-4-(trifluoromethyl)-1-(((2S,3R,4R,5R,6R)-3,4,5-trihydroxy-6-(hydroxymethyl)tetrahydro-2H-pyran-2-yl)oxy)-1H-indole-2-carboxylate], the “cell uptake (intracellular concentration, in words)” value in series [1] is “slightly lower levels of cell uptake”. Further, in the series on HeLa cells, the “enhanced potency compared to NHI-2” value is reported as 2–3 fold.
For the molecule `COC(=O)c1cc2c(C(F)(F)F)cc(-c3ccccc3)cc2n1O[C@H]1O[C@H](CO)[C@@H](O)[C@H](O)[C@@H]1O` [Compound 2, Methyl 6-phenyl-4-(trifluoromethyl)-1-(((2R,3S,4S,5S,6R)-3,4,5-trihydroxy-6-(hydroxymethyl)tetrahydro-2H-pyran-2-yl)oxy)-1H-indole-2-carboxylate], in series [1], the “cell uptake (intracellular concentration, in words)” value is “significantly enhanced cell uptake”. For the same molecule, the “enhanced potency compared to NHI-2” value in the series with HeLa cells is given as 3–6 fold.
Consider `COC(=O)c1cc2c(C(F)(F)F)cc(-c3ccccc3)cc2n1O[C@@H]1O[C@H](CO)[C@@H](O)[C@H](O)[C@H]1NC(C)=O` [Compound 4, Methyl 1-(((2S,3R,4R,5S,6R)-3-acetamido-4,5-dihydroxy-6-(hydroxymethyl)tetrahydro-2H-pyran-2-yl)oxy)-6-phenyl-4-(trifluoromethyl)-1H-indole-2-carboxylate], for which the Ki (commonly the equilibrium dissociation constant of an inhibitor or competing ligand from its target) in series [2] was found to be 98.4 ± 15.6 µM.
In the case of `OC[C@H]1OC(O)[C@H](O)[C@@H](O)[C@@H]1O` (some centres unmarked) [glucose], in the series on GLUT1, the Michaelis constant (Km) (commonly the concentration of substrate that gives half-maximal velocity) was 1.5 mM.
For the molecule `OC[C@H]1OC(O)[C@@H](O)[C@@H](O)[C@@H]1O` (stereo partly drawn) [Mannose, D-mannose], in the series with GLUT1, the “reduction of affinity for GLUT1 compared to glucose” value is recorded as 13 fold and the Km is 20 mM.
